In patent US7713706B2, “Method of fixing low-molecular compound to solid-phase support” (RIKEN, priority 2003, dated 2010):

How the values were obtained:
[1] = target: streptavidin-Alexa Fluor 633 conjugate (Streptomyces avidinii, UniProt P22629); assay: Detection of low molecule-protein bonding on low molecule-fixed slide (fluorescent slide scanner, 635 nm); format: binding; conditions: light of 635 nm; 3.7 μg/mL streptavidin-Alexa Fluor 633 conjugate; room temperature 1 hour; compound fixed on photophilic atomic group-introduced slide
Description: (§1) On the photophilic atomic group-introduced slide, 0.2 μL of each of solutions of low-molecular compounds (biotin, rhodamine B, digoxin) in DMSO, which had been prepared in concentrations of 100, 10, 1, 0.1 and 0.01 mM, was spotted. The slide was dried in an incubator at 35° C. for 3 hours and further dried with a vacuum pump for 20 hours. […] The slide was then washed while shaking by immersing in ethanol, DMF, THF, ethanol and deionized water in this order (for 1 hour each). Thus, a slide on which low molecules were fixed was produced.
(§2) Onto the low molecule-fixed slide, a protein solution (162 μg/mL anti-digoxin monoclonal antibody clone DI-22-FITC conjugate, 3.7 μg/mL streptavidin-Alexa Fluor 633 conjugate, 1% (w/v) skimmed milk, 77 mM NaCl, 0.05% (w/v) TWEEN™ 20 (polysorbate 20), 50 mM Tris-HCl, pH 7.5) was added at a rate of […], and then treated at room temperature for 1 hour. The slide was washed while shaking three times with a wash buffer (77 mM NaCl, 0.05% (w/v) TWEEN™ 20 (polysorbate 20), 50 mM Tris-HCl, pH 7.5), rinsed with deionized water, and dehydrated in a dehydration centrifuge (400×g) for 1 minute, The slide was exited with light of 488, 532 and 635 nm, respectively, and the emitted fluorescent light was observed on a fluorescent slide scanner. […]

[2] = test system: anti-digoxin monoclonal antibody clone DI-22-FITC conjugate; assay: Detection of low molecule-protein bonding on low molecule-fixed slide (fluorescent slide scanner, 488 nm); format: binding; conditions: light of 488 nm; 162 μg/mL anti-digoxin monoclonal antibody clone DI-22-FITC conjugate; room temperature 1 hour; compound fixed on photophilic atomic group-introduced slide
Description: as §1, §2

Chain of streptavidin-Alexa Fluor 633 conjugate (P22629 25-183): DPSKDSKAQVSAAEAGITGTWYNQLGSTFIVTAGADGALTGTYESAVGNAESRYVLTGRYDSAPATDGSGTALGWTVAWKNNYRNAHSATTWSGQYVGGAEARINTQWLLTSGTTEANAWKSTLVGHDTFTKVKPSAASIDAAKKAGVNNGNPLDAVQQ

Structure (SMILES)	binding of fixed low-molecular compound to protein (fluorescence detected at spotted areas) [1]	binding of fixed low-molecular compound to protein (fluorescence detected at spotted areas) [2]
O=C(O)CCCC[C@@H]1SC[C@@H]2NC(=O)N[C@@H]21 [biotin]	bound to the protein	–
C[C@H]1O[C@@H](O[C@H]2C(O)C[C@H](OC3CC[C@@]4(C)[C@H](CC[C@@H]5[C@@H]4C[C@@H](O)[C@]4(C)[C@@H](C6=CC(=O)OC6)CC[C@]54O)C3)O[C@@H]2C)C[C@H](O)C1O[C@H]1C[C@H](O)[C@H](O)[C@@H](C)O1 (some centres unmarked) [digoxin]	–	bound to the protein
